Experiment [1] relates to fibroblasts, monocytes and neutrophils. As to the kind of experiment: Chemotaxis assays expressed as Migration Index (cell type not separated). In kind it is cell-based, human. As to conditions: cells migrating in response to peptide divided by cells migrating in response to medium; positive chemotactic control. The source says:
The peptides of the invention induce chemotaxis of fibroblasts and inflammatory cells (neutrophils and monocytes/macro-phages) in in vitro assays. Assays for measuring chemotaxis induced by the peptides can utilize either fibroblasts or monocytes. The following sets forth a representative assay for measuring fibroblast chemotaxis induced by the peptides of the invention:
Peptides 280-293, 296-322, 328-354, 358-382 (SEQ ID NO. 16), 366-387 (SEQ ID NO. 11), 364-378 (SEQ ID NO. 6) and 368-374 (SEQ ID NO. 1) of Table I, whose sequences correspond to the designated regions of TGF-β1 were tested in chemotaxis assays for the ability to induce migration of fibroblasts, monocytes and neutrophils. The peptides were added to the lower compartments of modified Boyden chambers at the indicated concentration.
Because the peptides were tested in different experiments, migration was expressed as "Migration Index" which is obtained by dividing the number of cells migrating in response to medium into the number of cells migrating in response to each peptide. A positive chemotactic control, peptide 340-391 gave migration indices between 7-11.

In experiment [2] the test system is infant foreskin fibroblasts. Nature of the experiment: Fibroblast proliferation, [3H]thymidine incorporation. In kind it is cell-based. As to conditions: [3H]thymidine pulse after 72 h, harvest 24 h later; positive control human recombinant TGF-β1 (25 ng/ml). The method, then: The peptides of the invention were also found to induce fibroblast proliferation in vitro. Fibroblast proliferation was measured in low passaged (fewer than 8) fibroblast cultures. Fibroblasts were added at low density (20,000 cells/well) to Falcon 3047 multiwell plates in maintenance medium. After incubation at 37° C. in a humidified atmosphere containing 5% CO2 for 16 h, the medium was removed from each well and replaced with 450 μl serum-free maintenance medium containing 0.1% BSA and 50 μl aliquots of sterilized test sample. Each sample being tested for mitogenic activity was added to triplicate wells. […] After 15 min. of repeated agitation of each multi-well plate, a 250 μl aliquot from each well was transferred to scintillation vials containing Bio-Safe II (Research Products International Corp., Mt. Prospect, Ill.), cooled for 4 h, and counted in a scintillation counter. Fibroblast proliferation was expressed as "Mean CPM±SEM" per well of the replicates. […]
Fibroblast proliferation experiments in response to the 7-mer peptides (peptides 368-374) were carried out as generally described above. […] All cultures were performed in triplicate and results were expressed as the means of triplicate values as counts per minute (CPM) per well. […]

The test system of a further experiment is fibroblasts. As to the kind of experiment: Hyaluronate production by fibroblasts. Also on record: key to FIBROBLAST EFFECTS Hyaluronate: NE = No Effect. In kind it is cell-based.
In experiment [3] the test system is infant foreskin fibroblasts. As to the kind of experiment: Collagen production by fibroblasts (modified Peterofsky-Diegelman assay). In kind it is cell-based, human. The conditions noted are these: [3H]proline incorporation into collagenase-sensitive protein.

With “340-391: synthetic peptide corresponding to sequence 340-391 of TGF-β1; positive chemotactic control (VLALYNQHNPGASAAPCCVPQALEPLPIVYYVGRKPKVEQLSNMIVRSCKCS; printed: Val Leu Ala Leu Tyr Asn Gln His Asn Pro Gly Ala Ser Ala Ala Pro Cys Cys Val Pro Gln Ala Leu Glu Pro Leu Pro Ile Val Tyr Tyr Val Gly Arg Lys Pro Lys Val Glu Gln Leu Ser Asn Met Ile Val Arg Ser Cys Lys Cys Ser) [Peptide 340-391]”, in experiment [1], the “Migration Index” value was 7-11.
As for “VYYVGRK [Peptide 368-374, 7-mer corresponding to amino acids 368-374 of TGF-β1]”, the “fibroblast proliferation / growth (in words)” value in experiment [2] is recorded as “most effective in inducing fibroblast growth, exceeding that obtained with human recombinant TGF-β1”. The “synthesis of hyaluronic acid (in words)” value in the experiment on fibroblasts is “does stimulate fibroblast chemotaxis and synthesis of collagen and hyaluronic acid”. The “collagen production by fibroblasts (in words)” value in experiment [3] is “being the most potent”; in experiment [3] (listed as VYYVGRKK) it was “stimulated collagen production to some degree”.
Turning to “YSKVLALYNQHNPGASAAPC (YSKVLALYNQHNPGASAAPC) [Peptide 337-356]”, the “FIBROBLAST EFFECTS Hyaluronate” value in the experiment with fibroblasts (Table II summary) was “NE”.

For the origin of these results see US5824647A, “Chemotactic wound healing peptides” (priority 1995, dated 1998).
